Results reported in patent publication US9475824B2, “Fused pyrimidines as inhibitors of p97 complex” (Cleave Biosciences, Inc., priority 2012, dated 2016).

Experiments:
in vitro = details: human, Caco-2, pH 7.4
K48-Ub, A549 cells = assay: A549 K48 cell intensity (immunofluorescence, high content imaging); format: cell-based; details: Homo sapiens, 6 hr compound incubation
Description: Image-analysis is used to generate quantitative data from these assays that can be fit to a four-parameter sigmoid curve to derive IC50 values. Substrates of the ubiquitin-proteasome system, such as p53, are monitored after tumor cell lines are incubated with compounds for several hours. Accumulation of these proteins indicates an inhibition of proteasome-mediated degradation. Accumulation of lysine-48 chain linkage of poly-ubiquitin is also monitored by immunofluorescence as an indicator of ubiquitin-proteasome system inhibition. Both LC3 and SQSTM1 are mediators of autophagy. The localization and amounts of these proteins are monitored by immunofluorescence and report on the activity and inhibition of autophagy in response to p97 inhibition.
Day 1, Cell Plating to Establish Colonies of Cancer Cells • Cell Plating: • Seed cells ˜16 hrs prior to compound treatment • Plate 25 μL of A549 cells in every well of 384-well plate using multidrop. • Two (2) black plates for IF at 2500 cells/well • Let plate sit at room temp for 10-15 minutes prior to putting in incubator to allow cells to stick in middle of plate. • One (1) white plate for viability at 500 cells/well.

p97 = p97 (Homo sapiens, UniProt P55072); assay: P97 ATPase biochemical assay (ADP Glo); details: 20 nM p97, 20 μM ATP, 37° C. 15 minutes
p97, sequence (P55072 whole entry): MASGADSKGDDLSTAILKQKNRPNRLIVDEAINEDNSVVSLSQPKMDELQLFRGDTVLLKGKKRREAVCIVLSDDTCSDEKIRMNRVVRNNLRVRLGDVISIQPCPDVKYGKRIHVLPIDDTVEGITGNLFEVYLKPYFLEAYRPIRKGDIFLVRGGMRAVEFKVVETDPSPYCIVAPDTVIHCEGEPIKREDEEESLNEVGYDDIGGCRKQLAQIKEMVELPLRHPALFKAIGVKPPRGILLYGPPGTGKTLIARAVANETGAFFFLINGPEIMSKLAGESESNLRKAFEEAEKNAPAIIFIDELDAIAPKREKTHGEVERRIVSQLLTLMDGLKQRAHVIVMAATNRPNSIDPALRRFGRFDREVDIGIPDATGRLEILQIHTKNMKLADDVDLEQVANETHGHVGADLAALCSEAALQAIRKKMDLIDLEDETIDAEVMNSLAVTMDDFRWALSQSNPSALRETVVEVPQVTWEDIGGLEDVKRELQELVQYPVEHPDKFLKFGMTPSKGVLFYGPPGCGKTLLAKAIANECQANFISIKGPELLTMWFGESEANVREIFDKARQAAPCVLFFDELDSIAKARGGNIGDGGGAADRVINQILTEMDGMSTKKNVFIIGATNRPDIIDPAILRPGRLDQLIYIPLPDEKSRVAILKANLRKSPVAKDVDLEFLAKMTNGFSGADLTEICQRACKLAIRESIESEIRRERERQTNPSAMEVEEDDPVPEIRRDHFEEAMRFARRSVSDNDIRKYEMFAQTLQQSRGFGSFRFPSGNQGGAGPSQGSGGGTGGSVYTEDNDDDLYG
Description: The ATPase assay is performed according the following protocol: Purified enzyme (20 nM p97), substrate (20 μM ATP) and a dose titration of compounds are mixed in buffer (50 mM TRIS pH 7.5, 20 mM MgCl2, 0.02% TX-100, 1 mM DTT, 0.2% (v/v) glycerol) and incubated at 37° C. for 15 minutes. The reaction is terminated and the level of product generated is measured using the ADP Glo Assay Kit (Promega, Madison Wis.). Plotting product generated versus compound concentration and using a four-parameter fit model generates an IC50 value for each compounds.
The p97 assay is an initial screening assay used to determine inhibitory activity of the fused pyrimidine compounds of the invention against the p97 complex. As discussed above, inhibition of activity of the p97 proteosome complex can enable apoptosis and cause elimination of neoplastic cells (cancer cells). The method follows that of Christianson in Nat.
Assay Buffer is a mixture of 50 mM TRIS pH 7.5, 20 mM MgCl2, 0.02% TX-100, 1 mM DTT and 0.2% (v/v) Glycerol. […] The identification kit is an ADP glo kit (Promega): stop buffer, detection reagent.
0.5 μL compound serial diluted in DMSO (Final Conc. 10%)
2 μL ATP (Final Conc.=20 uM, diluted in assay buffer)
2.5 μL p97 (Final Conc.=20 nM, diluted in assay buffer)
Incubate at 37 degC for 15 min.
Add 5 μL of stop buffer, incubate at RT for 40 min.
Add 10 μL of detection reagent, incubate at RT for 30 min.
Read luminescence on Envision plate reader.
Plot normalized luminescence data against log-transformed concentration values and fit to a sigmoidal curve to determine IC50 values (done in Collaborative Drug Discovery software).

CC(C)NCC(O)COc1cccc2ccccc12 (stereo not shown) [Propranolol]
Papp A→B at 90 min, 100 μM (in vitro): 28.5 ×10⁻⁶ cm/s | Papp B→A at 90 min, 100 μM (in vitro): 20.9 ×10⁻⁶ cm/s | Peff A B, Range (Caco-2 cell monolayer; pH 7.4 Caco-2, A to B): 18.50-36.80 ×E−6 cm/sec | Peff B A, Range (Caco-2 cell monolayer; pH 7.4 Caco-2, B to A): 16.30-31.40 ×E−6 cm/sec

CCNC(=O)c1cccc2c1cc(C)n2-c1nc2c(c(NCc3ccccc3)n1)CCCC2 [compound 134, 1-[4-(benzylamino)-5,6,7,8-tetrahydroquinazolin-2-yl]-N-ethyl-2-methyl-1H-indole-4-carboxamide]
IC50 (K48-Ub, A549 cells): < 10 µM | IC50 (p97): < 0.03 µM

Cc1cc2c(C(N)=O)cccc2n1-c1nc2c(c(NCc3cccc(F)c3)n1)COCC2 [compound 136, 1-(4-{[(3-fluorophenyl)methyl]amino}-5H,7H,8H-pyrano[4,3-d]pyrimidin-2-yl)-2-methyl-1H-indole-4-carboxamide]
IC50 (K48-Ub, A549 cells): < 10 µM | IC50 (p97): < 0.03 µM

COCCOc1cc2c(C#N)cccc2n1-c1nc2c(c(NCc3ccccc3)n1)CCCC2 [compound 137, 1-[4-(benzylamino)-5,6,7,8-tetrahydroquinazolin-2-yl]-2-(2-methoxyethoxy)-1H-indole-4-carbonitrile]
IC50 (K48-Ub, A549 cells): < 10 µM | IC50 (p97): < 0.03 µM
